Test results: patent publication US5853695A, “Method for palliation of pain in human bone cancer using therapeutic tin-117m compositions” (Brookhaven Science Associates LLC, priority 1996, dated 1998)
“Also recorded” adds a separate entry of the source.

Columns and labels:
[1] = test system: bone pain; assay: Palliation of bone pain in human subjects (clinical study, patient pain records); type: in vivo; set-up: key to Result (pain relief): -: No relief; +: Partial Relief; ++: Good Relief
Experimental: (§1) Fourteen patients were enrolled in a controlled clinical study, including 9 males and 5 females. The patients were administered an Sn-117m chelate complex-containing composition (described above in Example 3) sufficient to provide between 33 and 156 μCi/kg body weight. The protocol was approved by an institutional review board and the United States Food and Drug Administration (FDA). All subjects gave informed consent.
(§2) Prior to initiation of therapy a Tc-99m MDP bone imaging study was obtained. Complete blood counts, including a differential and platelet count, electrolytes, and blood chemistries were obtained. No radiotherapy or chemotherapy had been administered to the patients in the prior month. Hormonal therapy was continued if the patient had been on hormonal therapy for more than three months without improvement in their clinical status.
(§3) Sn-117m (Sn^4+) DTPA was administered through an inlying infusion line over a period of 5-10 minutes. […] A complete urine collection was obtained over 4 days and a blood specimen obtained on the fourth day. This enabled an estimate of bone uptake. Two imaging studies to monitor the Sn-117m distribution were obtained in the first week and repeat chemistries were obtained at one week. Complete blood counts were obtained weekly for at least two months and less frequently thereafter. A repeat Tc-99m MDP bone imaging study was performed at two months.
Patients maintained a record of pain levels and sites daily for two weeks and then twice a week for the next 6 weeks.

[2] = test system: bone; assay: Bone uptake estimated from 4-day urine collection and blood specimen (% Total in Bone); type: in vivo, human; details: i.v. infusion
Experimental: as §1, §3

[3] = test system: white blood cells and platelets; assay: Hemopoietic toxicity by complete blood counts (white blood cells, platelets); type: in vivo, human
Experimental: as §2, §3
As a result, a dosage of the Sn-117m chelate within the range found to be effective for consistent pain reduction can also be expected to be non-toxic to the patient.

[4] = test system: bone; assay: External gamma camera / SPECT imaging of distribution in patients; type: in vivo, human
Experimental: Also note that the dose of the Sn-117m compound is within the range of dosages found to palliate pain according to the method of the invention.
The right panel depicts a three-dimensional reprojection image from SPECT (Single Photon Emission Computed Tomography) of a portion of the skeleton in the same patient.
as §3

Sn-117m (Sn^4+) diethylenetriaminepentaacetic acid [Sn-117m (Sn^4+) DTPA]
Result (pain relief) ([1]; Patient 4, prostate cancer, 61 kg, single 4.70 mCi (0.077 mCi/kg)): -
Result (pain relief) ([1]; Patient 6, unknown primary cancer, 108 kg, single 8.41 mCi (0.078 mCi/kg)): +
Result (pain relief) ([1]; Patient 7, prostate cancer, 59 kg, single 4.95 mCi (0.084 mCi/kg)): ++
Result (pain relief) ([1]; Patient 8, lung cancer, 61 kg, single 8.95 mCi (0.146 mCi/kg)): ++
Result (pain relief) ([1]; Patient 9, breast cancer, 59 kg, single 8.41 mCi (0.142 mCi/kg)): ++
Result (pain relief) ([1]; Patient 10, breast cancer, 59 kg, single 8.00 mCi (0.135 mCi/kg)): ++
Result (pain relief) ([1]; Patient 11, prostate cancer, 67 kg, single 10.46 mCi (0.156 mCi/kg)): +
Result (pain relief) ([1]; Patient 12, prostate cancer, 93 kg, single 14.46 mCi (0.156 mCi/kg)): ++
Result (pain relief) ([1]; Patient 13, prostate cancer, 118 kg, single 15.49 mCi (0.131 mCi/kg)): ++
Result (pain relief) ([1]; Patient 14, breast cancer, 50 kg, single 7.54 mCi (0.151 mCi/kg)): +
response to treatment, lower dose ([1]; patients given a lower dose): variable response to the treatment, in one case indicating that no relief was had
relief of pain, higher dose ([1]; seven patients who received more than about 9 mCi/70 kg (~129 μCi/kg), listed as Sn-117m chelates): all experienced relief of pain; also recorded: five experienced excellent relief; also recorded: two experienced partial relief
relief or palliation of pain, overall ([1]; single administrations, 33 to 156 μCi/kg, fourteen patients): dose-dependent relief or palliation of pain
% Total in Bone ([2]; Patient 9, breast cancer, 8.41 mCi (0.142 mCi/kg)): 72.1%
% Total in Bone ([2]; Patient 10, breast cancer, 8.00 mCi (0.135 mCi/kg)): 59.2%
% Total in Bone ([2]; Patient 11, prostate cancer, 10.46 mCi (0.156 mCi/kg)): 58.0%
% Total in Bone ([2]; Patient 12, prostate cancer, 14.46 mCi (0.156 mCi/kg)): 34.1%
% Total in Bone ([2]; Patient 13, prostate cancer, 15.49 mCi (0.131 mCi/kg)): 71.3%
% Total in Bone ([2]; Patient 14, breast cancer, 7.54 mCi (0.151 mCi/kg)): 69.2%
white blood cell (WBC) count or platelet count ([3]; Patient 11, over three months following single administration (10.4 mCi)): no decrease
hemopoietic toxicity ([3]; all patients in the study): no patients in the study showed evidence of hemopoietic toxicity
distribution in bone, whole body and SPECT images ([4]; cancer patient with bone metastases, 4 days after 5 mCi, FIG. 2): patchy bright spots denote spread of cancer to bone
distribution in bone by gamma camera imaging compared with technetium-99m-MDP ([4]; patient with prostate cancer spread to bone, 4 days after 10 mCi, FIG. 1): similarity of distribution of the two nuclides
